The values below come from patent publication US8691864B2, “Agents useful for reducing amyloid precursor protein and treating dementia and methods of use thereof” (priority 2000, dated 2014).

One data set concerns βAPP. The data set is described as follows: βAPP protein levels in U373 MG astrocytoma cells, western blot. The format is cell-based. To be noted: FIGS. 6A-C, alone or with PD98059 or LY294002. The procedure: SK-N-SH neuroblastoma cells were cultured on 60 mm dishes at a concentration of 3×10^6 cells, and SH-SY-5Y neuroblastoma and U373 astrocytorna cell lines were plated in 100 mm dishes at a concentration of 3×10^5 cells. The cells were allowed to grow in complete medium ([…], 2 mM glutamine in DMEM) for 3 to 4 days until they reached 70% confluence. To start the experiment, spent medium was removed and replaced with fresh medium (SKNSH—4 ml of DMEM+0.5% FBS; U373—5 ml of DMEM+2.5% FBS) containing 0, 5, or 50 μM phenserine. The cells were incubated at 37° C., 5% CO2 for the specific times indicated. Different media and sera were purchased from Life Technologies (Gaithersberg, Md.). […]
At each time point, the spent medium was collected and stored at −70° C. for later analysis of secretory βAPP levels. The cells were washed twice with PBS, pH 7.4 and incubated on ice for 15 min for lysis with 100 μL of lysis buffer (20 mM HEPES, 2 mM EGTA, 50 mM (β-glycophosphate, 1 mM sodium orthovanadate, 1% Triton X-100, 10% glycerol) containing appropriate protease inhibitors (2 mM PMSF, 100 μg/mL aprotinin, 25 μM leupeptin and 20 μg/mL soybean trypsin inhibitor). Each lysate was microcentrifuged for 15 min at 14 000 rpm. Protein levels of the supernatant were analyzed by the Bradford protein assay (BioRad, Melville, N.Y.). […]
For orientation: Immunoblotting shows a protein as a band on a membrane.

A short description of data set [1]: in vivo toxicity, i.p. administration to rodents. The procedure: This persisted for an hour and is related to central cholinergic overdrive. […] Animals were incapacitated at 20 mg/kg (N=3 per dose group), and 2 were killed when moribund.
The test system of another data set is Aβ1-40. The data set is described as follows: Aβ1-40 levels in cerebral cortex of transgenic mice, ELISA. The format is in vivo. Particulars: formic acid extraction, 3 weeks daily. On the procedure: (§1) Greater reductions could be achieved, but, as previously reported, doses of >5 mg/kg produce cholinergic side effects for the (−)-enantiomer but not for the (+)-enantiomer.
(§2) Samples of cerebral cortex from the transgenic mice then were analyzed for β amyloid peptide (Aβ) levels. Specifically, Aβ1-40 and Aβ1-42 levels, following formic acid extraction, were determined by ELISA assay (Suzuki et al., 1994).

The next data set deals with Aβ1-42. Kind of data set: Aβ1-42 levels in cerebral cortex of transgenic mice, ELISA. The format is in vivo. Particulars: formic acid extraction, 3 weeks daily. The procedure: as §1, §2
On the technique in general: In an ELISA, binding on a coated surface is turned into a signal by an enzyme label.

Regarding `CN1CC[C@@]2(C)c3cc(OC(=O)Nc4ccccc4)ccc3N(C)[C@@H]12` [(−)-phenserine], the “reduction of βAPP protein levels, densitometric quantification” value in the data set with βAPP is above 25%. In addition, the clinical signs result is recorded as “a fine tremor is observed” in data set [1] (5 mg/kg), “Tremor together with symptoms of peripheral cholinergic overdrive” in data set [1] (7.5 mg/kg) and “incapacitated” in data set [1] (20 mg/kg). Further, the “duration of tremor and peripheral cholinergic symptoms” value in data set [1] (7.5 mg/kg) was around 3 h. The “reduction of Aβ1-40 levels” value in the data set on Aβ1-40 came out at 68%. Besides, the “reduction of Aβ1-42 levels” value with Aβ1-42 is given as 53%.
